Here are results for four compounds from US12624173B2, “Biodegradable polymeric compositions, methods of preparation and uses thereof” (B.G. NEGEV TECHNOLOGIES AND APPLICATIONS LTD., AT …, priority 2019, dated 2026).

Series [1] can be described thus: Cannabidiol distribution in brain and plasma 1 h after IN and IV administration. It is filed as in vivo. The settings on record: rat. The protocol: The administered intranasal dose used in each animal was 220 μg CBD/kg body weight. The applied volume was approximately 15 μL/nostril. For the intravenous dose, a solution of CBD for injection was prepared by dissolving CBD in a small portion of ethanol, then mixed with a sterile saline solution (pH7.4) containing 1.5% Tween 80 and 0.1% ascorbic acid. The final concentration of ethanol was 5%. […] After 60 minutes from administration, the animals were euthanized by CO2 aspiration. […] The brain was then carefully excised, washed with saline, frozen at −80° C. and lyophilized.
The quantification of CBD was carried out at 220 nm.

For series [2] the following is noted: CBD in oil, humans; cited from earlier work.
For series [3] the following is noted: rat, in vivo, iv.
Procedure: (§1) For intravenous administration, aqueous solution of GR hydrochloride was prepared by dissolving the drug in a sterile saline solution. Approximately 0.3 ml of the solution were injected into the tail vein of a sedated animal (GR HCl dose=36 μg/kg body weight). The animals were sedated with isoflurane vapor just before administration. Sixty minutes after the administration, the animals were euthanized by CO2 aspiration. Then, blood sample was taken by cardiopuncture into heparinized tubes. Blood in heparinized tubes was centrifuged at 10,000-g for 10 min and the separated plasma was transferred into vials and kept at −20° C. until analyzed by HPLC. The brain was then carefully excised, washed with saline and frozen at −80° C.
(§2) Quantification of GR in plasma was performed by mixing 1 ml of plasma sample with 2 ml of methanol, followed by vortex stirring and centrifugation at 10,000-g for 10 min. The brain was homogenized with 2 ml of methanol/0.5 N HCl solution (1:1) followed by centrifugation at 10,000-g for 10 min. The supernatant solutions of both plasma and brain extracts were analyzed immediately by HPLC. Aliquots of 20 μl from each sample were injected into a HPLC system, equipped with a prepacked CN column. The quantification of GR was carried out at 301 nm. The samples were chromatographed using an isocratic mobile phase consisting of acetonitrile-acetate buffer solution pH5 (45:55) at a flow rate of 1 ml/min.
The conditions of series [4]: after IV curcumin in rats; cited from earlier work.
The conditions of series [5]: cited from earlier work.
The nature of series [6]: Granisetron distribution in brain and plasma 1 h after IN and IV administration. The following applies: rat.
Procedure: as §1, §2

Where two headings read alike, the source gives them in different places.

As for `C=C(C)[C@@H]1CCC(C)=C[C@H]1c1c(O)cc(CCCCC)cc1O` [CBD, Cannabidiol], the concentration at 1 h in series [1] (plasma, IV injection of CBD solution, dose 220 μg/Kg, 1 hour after administration, read-out: Plasma level (cannabidiol)) is 71.2 ng/mL. For the same compound, the CBD brain concentration entry in series [1] (1 h after iv administration of the same dose (220 μg/Kg)) is on record as “no detectable concentration”. For the same compound, the “Brain Level (cannabidiol)” value in series [1] (IV injection of CBD solution, dose 220 μg/Kg, 1 hour after administration) is “Undetectable”. For the same compound, in series [2], the oral bioavailability entry was “about 6%”.

Regarding `CN1C2CCCC1CC(NC(=O)c1nn(C)c3ccccc13)C2.Cl` (stereo not shown) [GR-HCl], the “portion of the dose that reached the brain” value in series [3] is “ca. 0.64%”.

Take `COc1cc(/C=C/C(=O)CC(=O)/C=C/c2ccc(O)c(OC)c2)ccc1O` [curcumin, diferuloyl methane]: the t1/2 in series [4] is 0.47 h.

Turning to `CN1C2CCCC1CC(NC(=O)c1nn(C)c3ccccc13)C2` (stereo not shown) [granisetron, Granisetron], the “average Cmax” value in series [5] (1 mg oral dose) was 3.63 ng/mL. Also, in series [5] (in vivo), the “Vd (volume of distribution)” value is on record as 3.94 L/kg, the “clearance (CL)” value was 6.83 mL/min/kg, the protein binding was 65% and the t1/2 is 6.23 h. Further, in series [6] (IV injection of GR hydrochloride in saline (GR HCl 36 μg/kg), 1 hour after administration), the “Plasma level (granisetron)” value is “Undetectable”. In series [6] (brain, iv, 36 μg/kg), the concentration at 1 h was 59.7 ng/g.
